Broadly, the IC50 is the concentration needed to halve the response being measured.

Data on five compounds can be found in patent USRE47047E1, “5-[(3,3,3-trifluoro-2-hydroxy-1-arylpropyl)amino]-1H-quinolin-2-ones, a process for their production and their use as anti-inflammatory agents” (ASTRAZENECA AB, priority 2007, dated 2018).

The target of assay [1] is T1, glucocorticoid receptor (GR) (Homo sapiens, UniProt P04150).
T1 construct: made in house; host or cells: Sf9 insect cells infected with recombinant baculovirus; cytosol preparation
T1 sequence (P04150 1-777): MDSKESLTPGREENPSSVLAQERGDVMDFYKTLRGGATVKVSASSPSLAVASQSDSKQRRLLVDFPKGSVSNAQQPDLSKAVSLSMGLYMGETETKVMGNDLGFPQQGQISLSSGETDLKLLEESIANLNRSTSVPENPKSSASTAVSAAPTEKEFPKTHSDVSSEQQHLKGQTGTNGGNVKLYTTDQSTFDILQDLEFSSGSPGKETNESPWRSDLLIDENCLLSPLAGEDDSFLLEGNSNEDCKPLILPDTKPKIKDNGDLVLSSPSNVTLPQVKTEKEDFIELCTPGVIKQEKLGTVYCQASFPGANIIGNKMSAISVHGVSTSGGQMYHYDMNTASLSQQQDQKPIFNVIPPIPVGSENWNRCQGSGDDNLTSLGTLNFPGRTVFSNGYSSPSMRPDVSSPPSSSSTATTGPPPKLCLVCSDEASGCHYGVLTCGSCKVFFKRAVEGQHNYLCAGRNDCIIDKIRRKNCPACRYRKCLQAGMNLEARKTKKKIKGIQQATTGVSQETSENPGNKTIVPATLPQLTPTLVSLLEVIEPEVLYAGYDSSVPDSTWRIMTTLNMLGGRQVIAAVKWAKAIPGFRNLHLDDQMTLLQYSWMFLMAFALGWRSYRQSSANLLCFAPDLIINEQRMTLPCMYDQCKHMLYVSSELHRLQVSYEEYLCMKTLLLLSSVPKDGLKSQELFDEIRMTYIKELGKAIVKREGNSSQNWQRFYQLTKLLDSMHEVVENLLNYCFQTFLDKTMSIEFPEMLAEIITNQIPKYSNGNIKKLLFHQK
Kind of assay: Binding to the glucocorticoid receptor (GR), recombinant receptor in cytosol preparations of Sf9 cells, [3H]-dexamethasone as reference. The note with it: reference [3H]-dexamethasone. From the text:
The binding of the substances to the glucocorticoid receptor (GR) and other steroid hormone receptors (mineral corticoid receptor (MR), progesterone receptor (PR) and androgen receptor (AR)) is examined with the aid of recombinantly produced receptors. Cytosol preparations of Sf9 cells, which had been infected with recombinant baculoviruses, which code for the GR, are used for the binding studies. In comparison to reference substance [^3H]-dexamethasone, the substances show a high to very high affinity to GR.

Assay [2] has as its system IL-8 secretion in human monocyte cell line THP-1. Kind of assay: Inhibition of LPS-triggered secretion of cytokine IL-8 in THP-1 cells (ELISA). Format: cell-based. The note with it: for IC50: Homo sapiens, THP-1 cells, LPS-triggered, ELISA of supernatant, read-out: IC50(IL8); for efficacy of IL-8 inhibition: in comparison with dexamethasone as reference. How it is done: The concentration of the cytokines was determined in the supernatant by means of commercially available ELISA kits.

In the case of `COCC(O)(C(Nc1cc(F)cc2[nH]c(=O)ccc12)c1ccc(OC)c(F)c1Cl)C(F)(F)F` (stereo not drawn) [Example 5, 5-{[1-(2-Chloro-3-fluoro-4-methoxyphenyl)-3,3,3-trifluoro-2-hydroxy-2-(methoxymethyl)propyl]amino}-7-fluoro-1H-quinolin-2-one], the values for the IC50 in assay [1] and in assay [2] were 3.1 nM and 0.19 nM, respectively. For the same compound, the “efficacy of IL-8 inhibition” value in assay [2] is listed as 98%.

As for `COc1c(F)cc(Cl)cc1C(Nc1cc(F)cc2[nH]c(=O)ccc12)C(O)(CO)C(F)(F)F` (stereo not drawn) [Example 8, 5-{[1-(5-Chloro-3-fluoro-2-methoxyphenyl)-3,3,3-trifluoro-2-hydroxy-2-(hydroxymethyl)-propyl]amino}-7-fluoro-1H-quinolin-2-one], in assay [2], the IC50 stood at 3.1 nM and the “efficacy of IL-8 inhibition” value is listed as 80%.

Turning to `COc1ccc(C(Nc2cccc3[nH]c(=O)ccc23)C(O)(CSC)C(F)(F)F)c(F)c1` (stereo not drawn) [Example 1, 5-{[1-(2-Fluoro-4-methoxyphenyl)-3,3,3-trifluoro-2-hydroxy-2-([methylsulfanyl]methyl)propyl]amino}-1H-quinolin-2-one], the IC50 in assay [1] came to 6.8 nM.

Regarding `CCSCC(O)(C(Nc1cc(F)cc2[nH]c(=O)ccc12)c1ccc(OC)c(F)c1Cl)C(F)(F)F` (stereo not drawn) [Example 4, 5-{[1-(2-Chloro-3-fluoro-4-methoxyphenyl)-2-([ethylsulfanyl]methyl)-3,3,3-trifluoro-2-hydroxypropyl]amino}-7-fluoro-1H-quinolin-2-one], the IC50 in assay [1] is 5.7 nM. In assay [2], the IC50 stood at 0.61 nM and the “efficacy of IL-8 inhibition” value stood at 97%.

With `COc1ccc(C(Nc2cc(F)cc3[nH]c(=O)ccc23)C(O)(CO)C(F)(F)F)c(Cl)c1F` (stereo not drawn) [Example 7, 5-{[1-(2-Chloro-3-fluoro-4-methoxyphenyl)-3,3,3-trifluoro-2-hydroxy-2-(hydroxymethyl)-propyl]amino}-7-fluoro-1H-quinolin-2-one], in assay [1], the IC50 amounted to 7.1 nM. In assay [2], the IC50 amounted to 0.44 nM and the “efficacy of IL-8 inhibition” value is recorded as 98%.
